Structures can show the parent of a compound that is named as a salt. Where two headings read alike, the source gives them in different places.
Legend:
Jurkat cells = assay: Measurement of Inhibitory Effect on Leukocyte Functions (adhesion of Jurkat cells to ligand-expressing cells or ligand-immobilized plate); format: cell-based; details: Homo sapiens, 0.5 h, read-out: IC50 (concentration at which the number of adherent cells is reduced by 50%)
Method: Jurkat cells, which are the cell line originated from human acute T cell […], were allowed to react with BCECF-AM at 37° C. for 20 minutes to fluorescently label the cells. The fluorescently labelled Jurkat cells were allowed to react with ligand-expressing cells or with a ligand-immobilized plate at 37° C. for 30 minutes. After removing non-adherent cells by washing, 1% NP40 was added thereto to lyse the adherent cells, and fluorescence intensity was measured with Cytofluor 2300 (Millipore). From the obtained fluorescence intensity, the number of adherent cells was calculated. Each test compound was reacted with the Jurkat cells before the beginning of the adhesion reaction. In Table 18, the IC50 of each compound (i.e. the concentration at which the number of adherent cells is reduced by 50%) is shown.

[1] = Pharmacokinetic Evaluation in Rats; format: in vivo; details: rat, male SD rats, administered orally or intravenously, 0.5 mg/mL dosing solution, plasma up to 8 hours; for clearance: intravenous, read-out: CLtot (total clearance) (converted); for bioavailability: oral, read-out: BA (bioavailability)
Method: Each compound was dissolved in PBS or PBS containing 10% PEG, thereby preparing 0.5 mg/mL dosing solution. The compound was administered orally or intravenously to male SD rats (7 to 9 weeks old). Blood was collected with time from the tail vein at time points up to 8 hours after the administration, and obtained blood was centrifuged to collect blood plasma. The blood plasma was pretreated by using the solid-phase extraction method, and the concentration of the compound was analyzed with LC/MS/MS (ESI negative mode).
As the Comparative Compound, 2-[4-((3,5-dichlorobenzensulfonylamino)methyl)benzoylamino]-5-(4-(methyl-pyrimidin-2-ylamino)phenyl)pent-4-enoic acid (XXI) described in WO 99/26923 was used.

[2] = tested on: Mouse Experimental Autoimmune Encephalomyelitis Model; assay: Inhibitory Effect of Compounds Against Mouse Experimental Autoimmune Encephalomyelitis Model; format: in vivo; details: orally 50 mg/kg every day from one day before inoculation of PLP139-151; female SJL mouse; scored at Days 11, 12 or 14
Method: This method was carried out in accordance with the literature “Int. Immunol., 9, 1243-1251 (1997)”.
A PBS solution containing 2 mg/mL partial synthetic peptide (PLP139-151) of proteolipid protein was mixed with an equal amount of Freund's complete adjuvant, and the resulting mixture was inoculated intracutaneously into both lateral regions of 7-week-old female SJL mouse (Charles River Laboratories Japan) in a total amount of 0.1 mL (0.05 mL per one side). The compounds described in Example 77, Example 78, Example 80, Example 81, Example 83 and Example 84 were orally administered at a dose of 50 mg/kg every day from one day before the inoculation, and neurological symptoms was scored (0: normal, 1: limp tail or hind limb weakness, 2: limp tail and hind limb weakness, 3: partial hind limb paralysis, 4: complete hind limb paralysis, 5: moribund state) at Days 11, 12 or 14. The scoring was carried out by using the method described in Current Protocols in Immunology (John Wiley & Sons, Inc).

[3] = Jurkat cell adhesion to ligand-expressing cells or ligand-immobilized plate, 37° C., 30 minutes

| Compound | IC50 (Jurkat cells) | IC50 (Jurkat cells; [3]) | clearance [1] | bioavailability [1] | rate of reduction of increase in the score of neurological symptoms [2] |
| --- | --- | --- | --- | --- | --- |
| O=C(NC(C/C=C/c1ccc(N(CC2CC2)c2ncccn2)cc1)C(=O)O)c1c(Cl)cccc1Cl (stereo not shown) [Example 53, (E)-5-[4-(Cyclopropylmethyl-pyrimidin-2-ylamino)phenyl]-2-(2,6-dichlorobenzamido)pent-4-enoic acid sodium salt] | 120 nM |  |  |  |  |
| CC(C)=CCN(c1ccc(/C=C/CC(NC(=O)c2c(Cl)cccc2Cl)C(=O)O)cc1)c1ncccn1 (stereo not shown) [Example 51, (E)-2-(2,6-Dichlorobenzamido)-5-[4-((3-methyl-2-butenyl)-pyrimidin-2-ylamino)phenyl]pent-4-enoic acid sodium salt] |  | 100 nM |  |  |  |
| CCCCN(c1ccc(/C=C/CC(NC(=O)c2c(Cl)cccc2Cl)C(=O)O)cc1)c1ncccn1 (stereo not shown) [Example 37, (E)-5-(4-Butyl-pyrimidin-2-yl-amino)-phenyl]-2-(2,6-dichlorobenzamido)-pent-4-enoic acid sodium salt] | 160 nM |  |  |  |  |
| COC1(c2ccc(/C=C/C[C@H](NC(=O)c3c(Cl)cccc3Cl)C(=O)O)cc2)CCOCC1 [Example 77, (S,E)-2-(2,6-Dichlorobenzamido)-5-[4-(4-methoxytetrahydropyran-4-yl)-phenyl]pent-4-enoic acid] |  | 49 nM | 16 mL/min/kg | 20% | 40% |
| CN(c1ccc(/C=C/C[C@H](NC(=O)c2c(Cl)cccc2Cl)C(=O)O)cc1)c1ncccn1 [Example 80, (S,E)-2-(2,6-Dichlorobenzamido)-5-[4-(methyl-pyrimidin-2-ylamino)phenyl]pent-4-enoic acid] |  | 95 nM | 15.1 mL/min/kg | 47.6% | 60% |
| CN(c1ccc(/C=C/C[C@H](NC(=O)c2c(Cl)cccc2Cl)C(=O)[O-])cc1)c1ncccn1.[Na+] [Example 81, (S,E)-2-(2,6-Dichlorobenzamido)-5-[4-(methyl-pyrimidin-2-ylamino)phenyl]pent-4-enoic acid sodium salt] |  |  | 16.1 mL/min/kg | 50.9% | 68% |
| CC(C)N(c1ccc(/C=C/C[C@H](NC(=O)c2c(Cl)cccc2Cl)C(=O)O)cc1)c1ncccn1 [Example 83, (S,E)-2-(2,6-Dichlorobenzamido)-5-[4-(isopropyl-pyrimidin-2-ylamino)phenyl]pent-4-enoic acid] |  | 17 nM | 18.1 mL/min/kg | 40% | 70% |
| COC1(c2ccc(/C=C/C[C@H](NC(=O)c3c(Cl)cccc3Cl)C(=O)[O-])cc2)CCOCC1.[Na+] [Example 78, (S,E)-2-(2,6-Dichlorobenzamido)-5-[4-(4-methoxytetrahydropyran-4-yl)-phenyl]pent-4-enoic acid sodium salt] |  |  | 16.6 mL/min/kg | 26.1% | 60% |
| CC(C)CN(c1ccc(/C=C/CC(NC(=O)c2c(Cl)cccc2Cl)C(=O)O)cc1)c1ncccn1 (stereo not shown) [Example 55, (E)-2-(2,6-Dichlorobenzamido)-5-[4-(isobutyl-pyrimidin-2-ylamino)phenyl]pent-4-enoic acid sodium salt] | 420 nM |  |  |  |  |
| CC(C)N(c1ccc(/C=C/C[C@H](NC(=O)c2c(Cl)cccc2Cl)C(=O)[O-])cc1)c1ncccn1.[Na+] [Example 84, (S,E)-2-(2,6-Dichlorobenzamido)-5-[4-(isopropyl-pyrimidin-2-ylamino)phenyl]pent-4-enoic acid sodium salt] |  |  | 19.6 mL/min/kg | 58.5% | 67% |

Reference: patent US7879837B2, “Therapeutic or prophylactic agent for multiple sclerosis” (Toray Industries, Inc., priority 2006, dated 2011)
